Measurements: patent publication US6734168B2, “Endothelial monocyte activating polypeptide II: a mediator which activates host response” (The Trustees of Columbia University in the City of New York, priority 1993, dated 2004)

What was measured:
[1] = tested on: human PMNs; assay: [Ca2+]i measurement in PMNs (fura-2); assay type: cell-based
Procedure: (§1) [Ca^2+1]i measurements. PMNs or MPs (2×10^7 cells in each case) were incubated with fura-2 AM (1 μM) and pluronic detergent (0.02%) for 12 min at room temperature, diluted sixfold, and incubated for a further 30 min at room temperature to allow for complete hydrolysis of the dye. Cells were then resuspended in HEPES-buffered saline at 5×10^5 cells/ml (32). For experiments using MPs, sulfinpyrazone (0.5 mM) was included at all steps to minimize both dye sequestration into intracellular organelles and dye efflux (33). Fluorescence of fura-2 was monitored at 37° C. in a thermostatically-controlled cuvette installed in a Perkin Elmer Model 650-40 fluorescense spectrophotometer. Calibration of [Ca^2+]i was performed as described (34).
(§2) For determination of [Ca^2+] in PMSs and MPs, cells (2×10^7 in each case) were incubated with fura-2 AM (1 um) and pluronci detergent (0.02%) at room temperature, diluted 6-fold, and incubated for a further 30 min at room temperature to allow for complete hydrolysis of the dye. Cells were then resuspended in HEPES-buffered saline at 5×10^5 cells/ml (32). For MPs, sulfinpyrazone (0.5 mM) was included at all steps to minimize both dye sequestration into intracellular organelles and dye efflux (33). Fluorescence of fura-2 was monitored at 37° C. in a thermostatically controlled cuvette installed in a Perkin Elmer model 650-40 fluorescence spectrophotometer. Calibration of [Ca^2+] was performed as described (34).

[2] = tested on: human MPs; assay: Radioligand binding of 125I-[…] to MPs; details: excess / increasing concentrations of unlabelled competitor
Procedure: Radioligand binding studies were performed on human MPs plated in 96-well plates (5-6×10^4 cells/well). Cells were washed twice with Hanks balanced salt solution, and then Dulbecco's Modified Eagle Medium containing HEPES (25 mM; pH 7.4), penicillin/streptomycin (50 U/ml; 50 μg/ml), and bovine serum albumin-fatty acid free (0.5%; Sigma) were added (0.1 ml/well). Cultures were incubated at 4° C. for 2 hrs with ^125I-[…] alone or in the presence of unlabelled peptide/protein. Each well was washed four times over a period of 20 sec, and cell-associated radioactivity was eluted by an acidic buffer (HCl, 0.1 M, pH 2; NaCl, 0.1 M) at 4° C. for 5 min. During the elution period, there was no detachment of cells from the growth substrate. The conditions for incubation and washing used in the binding studies shown in FIG. 3 (2 hrs at 4° C.) were […] to allow binding of ^125I-[…] to reach an apparent maximum, even at the lowest tracer concentrations, and to remove unbound material by washing quickly so that <10% of the cell-bound radioactivity dissociated.

[3] = tested on: human MPs; assay: MP tissue factor activity, Factor VIIa-dependent Factor Xa formation; assay type: cell-based
Procedure: Tissue factor activity of monolayers of ECs and MPs was determined (7) after incubation with EMAP II-derived peptides at 37° C. for 4-12 hrs by washing cultures with HEPES (10 MM; pH 7.4), NaCl (137 mM), KCl (4 mM), CaCl2 (3 mM), glucose (10 mM), bovine serum albumin (0.5 mg/ml), and addition of 0.5 ml of the same buffer along with purified human Factor VIIa (1 nM) and Factor X (200 nM) for 45 min at 37° C. Aliquots (0.05 ml) of the reaction mixture (one per well) were withdrawn at 15 min intervals, added to a buffer containing Tris (50 mM; pH 7.9), NaCl (175 mM), EDTA (5 mM) and bovine serum albumin (0.5 mg/ml; 0.05 ml), and the chromogenic substrate Spectrozyme Factor Xa (American Diagnositca, Inc., Greenwich Conn.; 0.01 ml; 2 mM). Cleavage of the substrate was monitored by the change in absorbance at 405 nm (BioKinetics Reader, Winooski, Vt.). Factor Xa concentration was determined by comparison with a standard curve generated with known amounts of purified human Factor Xa. Human, plasma-derived Factors VIIa and X were purified to homogeneity as described (31).
In Vitro Assays of EC, MP, and PMN Functions-Cell-associated tissue factor was assayed by its functional activity, using purified coagulation proteins, and tissue factor mRNA was detected by PCR. […] The concentration of Factor Xa was determined based on a standard curve generated with purified Factor Xa. […]

[4] = tested on: human MPs; assay: [Ca2+]i measurement in MPs (fura-2); assay type: cell-based
Procedure: as §1
as §2, with “Calibration of [Ca^2+] was performed as described (34).” left out

[5] = tested on: mouse footpad; assay: Injection of peptides and peptide-albumin conjugates into mouse footpads; assay type: in vivo; details: unconjugated peptide
Procedure: Preparation and implantation of peptide-albumin conjugates into mice. Peptide-albumin conjugates (made with either […], […] or […]) (SEQ ID NO. 16) were prepared using glutaraldehyde as described (39). In brief, mouse serum albumin (50 μg) was incubated with glutaraldehyde (450 μg) and the indicated peptide (200 μg) in NaCl (0.1 M) Tris (0.05 N; pH 7.3) for 10 min at room temperature. Excess lysine was added (final concentration, 0.5 M), and the albumin-peptide conjugates were dialyzed exhaustively versus phosphate-buffered saline. BALB/c mice (6-12 weeks) each received an injection into the footpad (7,40-41) of 0.05 ml of a solution of either (i) albumin-peptide conjugate (50 μg, total protein/footpad), (ii) albumin treated with glutaraldehyde in an identical fashion, except that no peptide was present (50 μg, total protein/footpad), (iii) native albumin (50 μg total protein/footpad), or (iv) buffer alone. At the indicated time, animals were sacrificed by humane euthanasia, footpads were harvested, fixed in buffered formalin (10%), decalcified, and embedded in paraffin. Sections were stained with hematoxylin and eosin.

Competition for binding of 125I-RIGRIVTAKY to MPs by unlabelled peptide/protein [2]: inhibition
Sequence: ASRLDLRIGRIVTAKY [residues #6-20 from EMAP II, Cys to Arg substitution at position #15, and a C-terminal Tyr]
Rise in [Ca2+]i in PMNs [1]: induced a rise in [Ca^2+]i | Induction of tissue factor activity in MPs (Factor VIIa-dependent Factor X activation) [3]: did not demonstrate induction of tissue factor activity | Rise in [Ca2+]i in MPs [4]: results in elevation of [Ca^2+]i | Inflammatory response to free peptide injected subcutaneously into mice [5]: at most a transient inflammatory response
